Test results from patent US8188059B2, “Compounds and methods for modulating expression of GCGR” (Isis Pharmaceuticals, Inc., priority 2006, dated 2012).
Strand notation (5' to 3'): a small letter for the sugar, then the base; units joined by * are phosphorothioate-linked, units joined directly phosphodiester-linked; [ ] holds rarer units or linkages, { } end groups; capitals alone tell only the bases. e = 2'-O-(2-methoxyethyl) (MOE); [5mC] = 5-methylcytosine; d = 2'-deoxy (DNA)

Tests used:
[1] = tested on: PTP1B mRNA; experiment: Dose response for human PTP1B in HuVEC cells, Primer Probe Set 198 (Example 25, Table 86); type: cell-based
Method: (§1) Human vascular endothelial (HuVEC) cells were plated at a density of 5000 cells per well and treated as described herein with nM concentrations of short antisense compound as indicated in Table 86. After the treatment period, RNA was isolated from the cells and PTP1B mRNA levels were measured by quantitative real-time PCR, as described herein. PTP1B mRNA levels were adjusted according to total RNA content as measured by RIBOGREEN®. Two different human PTP1B primer probe sets were used to measure mRNA levels. Results with Primer Probe Set (PPS) 198 are shown in Table 86, and results with Primer Probe Set (PPS) 3000 are shown in Table 87. Results are presented as percent inhibition of PTP1B mRNA expression relative to untreated control cells.

[2] = tested on: PTP1B mRNA; experiment: Dose response for human PTP1B in HuVEC cells, Primer Probe Set 3000 (Example 25, Table 87); type: cell-based
Method: as §1

[3] = tested on: PCSK9 mRNA; type: cell-based, human; details: Hep3B cells, 100 nM, relative to untreated control cells; for % Inhib (PCSK9 mRNA): 0 = no reduction observed
Method: When cells reached appropriate confluency, they were treated with oligonucleotide using LIPOFECTIN® as described. […] Cells were treated and data were obtained in duplicate or triplicate. […] Cells were harvested 16-24 hours after oligonucleotide treatment.
Short antisense compounds targeted to a PCSK9 nucleic acid were tested for their effects on PCSK9 mRNA in vitro. The Isis No, gapmer motif and SEQ ID NO of each short antisense compound are shown again in Table 75. Cultured Hep3B cells were treated with 100 nM of short antisense compound. 5-10-5 MOE gapmers targeted to a PCSK9 nucleic acid were used as positive controls. After the treatment period, RNA was isolated from the cells and PCSK9 mRNA levels were measured by quantitative real-time PCR, as described herein. PCSK9 mRNA levels were adjusted according to total RNA content as measured by RIBOGREEN®. Results are presented in Table 75 as percent inhibition of PCSK9 (% Inhib), relative to untreated control cells.

[4] = Triglyceride, cholesterol and glucose levels, pre-bleed and post-bleed (Example 4, Table 34); type: in vivo, mouse
Method: Eight-week old male C57/BL6 mice (Jackson Laboratory, Bar Harbor, Me.) were administered a single dose of GCGR oligonucleotide by intraperitoneal injection at a concentration of […]. Each dose group consisted of four animals. Shown in Table 31 are the sequences, motifs and conjugates of the GCGR antisense compounds used in this study. Bolded residues indicate 2′-O-methoxyethyl (2′-MOE) moieties. All compounds comprise phosphorothioate internucleoside linkages throughout and each cytosine is replaced with 5-methylcytosine. ISIS 386626, ISIS 386627 and ISIS 386628 further comprise a C16 conjugate group attached to the 2′-O position of the sugar via a diamide linkage (2′-OCH2C(═O)N(H)(CH2)4N(H)C(═O)—(CH2)15CH3). GCGR antisense compounds target published GCGR sequences, including Genbank® Accession No. BC031885.1 (SEQ ID NO: 7).
Mice were sacrificed 48 hours following injection to determine serum transaminase levels (Table 32); liver, white adipose tissue (WAT), spleen and kidney weight (Table 33); cholesterol, triglyceride and glucose levels (Table 34); GCGR mRNA levels (Tables 35-41); and full-length and total oligonucleotide concentration in liver and kidney (Table 42). Endpoints were assessed using methods described herein and well known to those of ordinary skill in the art. Data is included from a pre-treatment bleed (Pre-Bleed) and post-treatment bleed (Post-Bleed).

398105 (antisense eT*eG*d[5mC]*dA*d[5mC]*dA*dG*dG*d[5mC]*dA*dG*dG*eT*eT) [compound 398105]
% Inhibition of PTP1B mRNA ([1]; PPS 198, 1.11 nM): 0%
% Inhibition of PTP1B mRNA ([1]; PPS 198, 3.33 nM): 25%
% Inhibition of PTP1B mRNA ([1]; PPS 198, 10.0 nM): 79%
% Inhibition of PTP1B mRNA ([1]; PPS 198, 30.0 nM): 90%
% Inhibition of PTP1B mRNA ([2]; PPS 3000, 1.11 nM): 0%
% Inhibition of PTP1B mRNA ([2]; PPS 3000, 3.33 nM): 35%
% Inhibition of PTP1B mRNA ([2]; PPS 3000, 10.0 nM): 79%
% Inhibition of PTP1B mRNA ([2]; PPS 3000, 30.0 nM): 93%

398112 (antisense e[5mC]*eA*dG*d[5mC]*d[5mC]*dT*dG*dG*d[5mC]*dA*d[5mC]*d[5mC]*eT*eA) [compound 398112]
% Inhibition of PTP1B mRNA ([1]; PPS 198, 1.11 nM): 1%
% Inhibition of PTP1B mRNA ([1]; PPS 198, 3.33 nM): 10%
% Inhibition of PTP1B mRNA ([1]; PPS 198, 10.0 nM): 73%
% Inhibition of PTP1B mRNA ([1]; PPS 198, 30.0 nM): 93%
% Inhibition of PTP1B mRNA ([2]; PPS 3000, 1.11 nM): 0%
% Inhibition of PTP1B mRNA ([2]; PPS 3000, 3.33 nM): 26%
% Inhibition of PTP1B mRNA ([2]; PPS 3000, 10.0 nM): 77%
% Inhibition of PTP1B mRNA ([2]; PPS 3000, 30.0 nM): 94%

398120 (antisense eG*eT*dT*d[5mC]*dA*dA*dG*d[5mC]*dG*dG*d[5mC]*d[5mC]*eT*eA) [compound 398120]
% Inhibition of PTP1B mRNA ([1]; PPS 198, 1.11 nM): 0%
% Inhibition of PTP1B mRNA ([1]; PPS 198, 3.33 nM): 31%
% Inhibition of PTP1B mRNA ([1]; PPS 198, 10.0 nM): 80%
% Inhibition of PTP1B mRNA ([1]; PPS 198, 30.0 nM): 96%
% Inhibition of PTP1B mRNA ([2]; PPS 3000, 1.11 nM): 0%
% Inhibition of PTP1B mRNA ([2]; PPS 3000, 3.33 nM): 35%
% Inhibition of PTP1B mRNA ([2]; PPS 3000, 10.0 nM): 79%
% Inhibition of PTP1B mRNA ([2]; PPS 3000, 30.0 nM): 93%

398173 (antisense e[5mC]*dA*dG*d[5mC]*d[5mC]*dT*dG*dG*dG*d[5mC]*dA*e[5mC]) [compound 398173]
% Inhibition of PTP1B mRNA ([1]; PPS 198, 1.11 nM): 0%
% Inhibition of PTP1B mRNA ([1]; PPS 198, 3.33 nM): 4%
% Inhibition of PTP1B mRNA ([1]; PPS 198, 10.0 nM): 80%
% Inhibition of PTP1B mRNA ([1]; PPS 198, 30.0 nM): 97%
% Inhibition of PTP1B mRNA ([2]; PPS 3000, 1.11 nM): 0%
% Inhibition of PTP1B mRNA ([2]; PPS 3000, 3.33 nM): 18%
% Inhibition of PTP1B mRNA ([2]; PPS 3000, 10.0 nM): 80%
% Inhibition of PTP1B mRNA ([2]; PPS 3000, 30.0 nM): 90%

400349 (antisense e[5mC]*eT*dG*dG*dA*dG*d[5mC]*dA*dG*d[5mC]*dT*d[5mC]*eA*eG) [compound 400349]
% Inhibition Range (PCSK9 mRNA) [3]: 10-20%
% Inhib (PCSK9 mRNA) [3]: 13%

400350 (antisense e[5mC]*e[5mC]*d[5mC]*dT*d[5mC]*dA*d[5mC]*d[5mC]*d[5mC]*d[5mC]*d[5mC]*dA*eA*eA) [compound 400350]
% Inhibition Range (PCSK9 mRNA) [3]: 10-20%
% Inhib (PCSK9 mRNA) [3]: 15%

400351 (antisense eA*e[5mC]*d[5mC]*d[5mC]*dT*d[5mC]*dA*d[5mC]*d[5mC]*d[5mC]*d[5mC]*d[5mC]*eA*eA) [compound 400351]
% Inhibition Range (PCSK9 mRNA) [3]: 10-20%
% Inhib (PCSK9 mRNA) [3]: 14%

400354 (antisense eG*eA*d[5mC]*dA*d[5mC]*d[5mC]*d[5mC]*dT*d[5mC]*dA*d[5mC]*d[5mC]*e[5mC]*e[5mC]) [compound 400354]
% Inhibition Range (PCSK9 mRNA) [3]: 10-20%
% Inhib (PCSK9 mRNA) [3]: 19%

400355 (antisense eA*eG*dA*d[5mC]*dA*d[5mC]*d[5mC]*d[5mC]*dT*d[5mC]*dA*d[5mC]*e[5mC]*e[5mC]) [compound 400355]
% Inhib (PCSK9 mRNA) [3]: 0%

400356 (antisense eT*eA*dG*dA*d[5mC]*dA*d[5mC]*d[5mC]*d[5mC]*dT*d[5mC]*dA*e[5mC]*e[5mC]) [compound 400356]
% Inhib (PCSK9 mRNA) [3]: 0%

400357 (antisense eT*eG*dG*d[5mC]*dA*dG*d[5mC]*dA*dG*dG*dA*dA*eG*e[5mC]) [compound 400357]
% Inhib (PCSK9 mRNA) [3]: 0%

400358 (antisense eA*eT*dG*dG*d[5mC]*dA*dG*d[5mC]*dA*dG*dG*dA*eA*eG) [compound 400358]
% Inhibition Range (PCSK9 mRNA) [3]: 10-20%
% Inhib (PCSK9 mRNA) [3]: 12%

400359 (antisense e[5mC]*eA*dT*dG*dG*d[5mC]*dA*dG*d[5mC]*dA*dG*dG*eA*eA) [compound 400359]
% Inhib (PCSK9 mRNA) [3]: 0%

400360 (antisense eG*e[5mC]*dA*dT*dG*dG*d[5mC]*dA*dG*d[5mC]*dA*dG*eG*eA) [compound 400360]
% Inhibition Range (PCSK9 mRNA) [3]: 30-40%
% Inhib (PCSK9 mRNA) [3]: 38%

400361 (antisense eG*eG*d[5mC]*dA*dG*d[5mC]*dA*dG*dA*dT*dG*dG*e[5mC]*eA) [compound 400361]
% Inhib (PCSK9 mRNA) [3]: 2%

400362 (antisense e[5mC]*eG*dG*d[5mC]*dA*dG*d[5mC]*dA*dG*dA*dT*dG*eG*e[5mC]) [compound 400362]
% Inhibition Range (PCSK9 mRNA) [3]: 10-20%
% Inhib (PCSK9 mRNA) [3]: 16%

400363 (antisense e[5mC]*e[5mC]*dG*dG*d[5mC]*dA*dG*d[5mC]*dA*dG*dA*dT*eG*eG) [compound 400363]
% Inhib (PCSK9 mRNA) [3]: 8%

400364 (antisense eT*e[5mC]*d[5mC]*dG*dG*d[5mC]*dA*dG*d[5mC]*dA*dG*dA*eT*eG) [compound 400364]
% Inhib (PCSK9 mRNA) [3]: 0%

400365 (antisense e[5mC]*eT*d[5mC]*d[5mC]*dG*dG*d[5mC]*dA*dG*d[5mC]*dA*dG*eA*eT) [compound 400365]
% Inhibition Range (PCSK9 mRNA) [3]: 20-30%
% Inhib (PCSK9 mRNA) [3]: 25%

400366 (antisense eG*e[5mC]*dT*d[5mC]*d[5mC]*dG*dG*d[5mC]*dA*dG*d[5mC]*dA*eG*eA) [compound 400366]
% Inhibition Range (PCSK9 mRNA) [3]: 10-20%
% Inhib (PCSK9 mRNA) [3]: 15%

400367 (antisense eG*eG*d[5mC]*dT*d[5mC]*d[5mC]*dG*dG*d[5mC]*dA*dG*d[5mC]*eA*eG) [compound 400367]
% Inhibition Range (PCSK9 mRNA) [3]: 10-20%
% Inhib (PCSK9 mRNA) [3]: 12%

400368 (antisense e[5mC]*eG*dG*d[5mC]*dT*d[5mC]*d[5mC]*dG*dG*d[5mC]*dA*dG*e[5mC]*eA) [compound 400368]
% Inhibition Range (PCSK9 mRNA) [3]: 10-20%
% Inhib (PCSK9 mRNA) [3]: 11%

400369 (antisense e[5mC]*e[5mC]*dG*dG*d[5mC]*dT*d[5mC]*d[5mC]*dG*dG*d[5mC]*dA*eG*e[5mC]) [compound 400369]
% Inhib (PCSK9 mRNA) [3]: 0%

400370 (antisense eG*e[5mC]*d[5mC]*dG*dG*d[5mC]*dT*d[5mC]*d[5mC]*dG*dG*d[5mC]*eA*eG) [compound 400370]
% Inhibition Range (PCSK9 mRNA) [3]: 10-20%
% Inhib (PCSK9 mRNA) [3]: 13%

400371 (antisense eA*eG*dT*dT*dA*d[5mC]*dA*dA*dA*dA*dG*d[5mC]*eA*eA) [compound 400371]
% Inhib (PCSK9 mRNA) [3]: 0%

ISIS 386628: GCGR 2-10-2 MOE gapmer with C16 conjugate group at the 2′-O position via a diamide linkage (antisense TGTCTTGCTGCTTT; chemistry not fully specified)
post-bleed glucose levels ([4]; C57/BL6 mice, single i.p. dose, 48 hours): generally led to a decrease
post-bleed triglyceride levels ([4]; relative to the 5-10-5 MOE gapmer): greatest dose-dependent effect
